Paper PMC10508264, “Exploring the antioxidant, antimicrobial, cytotoxic and biothermodynamic properties of novel morpholine derivative bioactive Mn(II), Co(II) and Ni(II) complexes – combined experimental and theoretical measurements towards DNA/BSA/SARS-CoV-2 3CL^Pro” (RSC Medicinal Chemistry, 2023)

How the values were obtained:
[1] = tested on: Salmonella enterica serovar typhi; experiment: Agar disc diffusion, strain B; assay type: cell-based; conditions: for Diameter of clear zone inhibition: control 6 mm
Shigella flexneri = experiment: Agar disc diffusion, strain E; assay type: cell-based; design: Inhibition%: concentration or dose not given beside the values; conditions: for Diameter of clear zone inhibition: control 6 mm
[2] = tested on: Salmonella enterica serovar typhi; experiment: Agar disc diffusion, strain C; assay type: cell-based; conditions: for Diameter of clear zone inhibition: control 6 mm
Bacillus cereu = experiment: Agar disc diffusion, strain G; assay type: cell-based; design: Inhibition%: concentration or dose not given beside the values; conditions: for Diameter of clear zone inhibition: control 6 mm
Escherichia coli = experiment: Agar disc diffusion, strain A; assay type: cell-based; design: Inhibition%: concentration or dose not given beside the values; conditions: for Diameter of clear zone inhibition: control (DMSO) 6 mm
Pseudomonas aeruginosa = experiment: Agar disc diffusion, strain D; assay type: cell-based; design: Inhibition%: concentration or dose not given beside the values; conditions: for Diameter of clear zone inhibition: control 6 mm
Staphylococcus Aureus = experiment: Agar disc diffusion, strain F; assay type: cell-based; design: Inhibition%: concentration or dose not given beside the values; conditions: for Diameter of clear zone inhibition: control 6 mm
Candida albicans = experiment: Agar disc diffusion, strain I; assay type: cell-based; design: Inhibition%: concentration or dose not given beside the values; conditions: for Diameter of clear zone inhibition: control 6 mm
Mucor indicus = experiment: Agar disc diffusion, strain J; assay type: cell-based; design: Inhibition%: concentration or dose not given beside the values; conditions: for Diameter of clear zone inhibition: control 6 mm
Aspergillus niger = experiment: Agar disc diffusion, strain H; assay type: cell-based; design: Inhibition%: concentration or dose not given beside the values; conditions: for Diameter of clear zone inhibition: control 6 mm
[3] = DPPH radical scavenging assay; assay type: biochemical; conditions: for % Inhibition, DPPH: 517 nm
[4] = Hydroxyl radical scavenging assay; assay type: biochemical; conditions: for % Inhibition, hydroxyl radical: 230 nm
[5] = Nitric oxide scavenging assay; assay type: biochemical; conditions: 546 nm
[6] = Superoxide scavenging assay; conditions: 590 nm
CT-DNA [7] = experiment: DNA thermal denaturation / biothermodynamic properties; assay type: binding; conditions: adduct vs CT-DNA alone
CT-DNA [8] = experiment: DNA binding by viscometric (hydrodynamic) technique
Experimental: The hydrodynamic properties were measured using an Ostwald viscometer with the help of a thermostat (25 ± 0.1 °C). The specific viscosity of DNA was also measured in the presence and absence of the test samples.[13,30]
Generally, when the major/minor groove binding, electrostatic, partial, and non-classical interaction modes are involved between chemical substances and DNA base pairs, the final DNA relative viscosity remains unchanged or undergoes a very negligible change due to reducing the contour length of DNA. When the intercalation binding modes are involved between a chemical substance and DNA base pairs via π–π stacking interactions and hydrophobic forces, an increase in relative viscosity is noted due to a rise in the contour length of DNA. Moreover, for the purpose of observing alterations in the CT-DNA helical structure, the viscosity findings for CT-DNA, various concentrations of chemical substances present, and EtBr were recorded. It was also noted that the absolute viscosity rose consistently along with the incremental concentration of each substance at the fixed DNA concentration. As a result of the strong binding mode of intercalation, the contour length of the double-helix DNA rises.[72] The obtained results are also compared with those of the classical intercalator (EB). The affinity interaction and their slope values were observed from the relative specific viscosity (η/η0)^1/3 plotted as a straight line contrasting [compound]/[DNA] and absolute specific viscosity of DNA in the presence or absence of chemical substances was evaluated using eqn (11) (Table 3). In the experiment, it was clearly noted that the slope values for all samples increased due to the rising binding affinity. The evaluated slopes were in the following sequence: (EB) 1.215 > (2) 0.860 > (3) 0.801 > (1) 0.662 > (HL) 0.490 (Fig. S21 ^† and Table 3). […] Due to the existence of 2,2′-bipyridine and the morpholine-fused aromatic planar systems, compounds can interact with DNA robustly via intercalation. The outcomes agreed with the observed outcomes of electronic absorption spectral characteristics.
11 [drawing 21] where η and η0 represent the specific viscosity of DNA in the presence of the complex and the specific viscosity of DNA alone, t0, tDNA and tcomplex represent the average flow time of the Tris–HCl buffer solution, the average flow time of the DNA alone solution, and the average flow time of DNA interacted with the samples, respectively. Error limit ± 2.5% (P < 0.025). […]
2.2.4. Assessment of DNA affinity by hydrodynamic technique
Hydrodynamic properties were performed using an Ostwald viscometer with the help of a thermostat (25 ± 0.1 °C). The experiment was performed of all samples, including ethidium bromide at various concentrations (20, 40, 60, 80, 100 µM) and each test compound was mixed with the deoxyribonucleic acid solution (100 µM) in the Ostwald viscometer. With a help of digital stopwatch, average flow time was gauged three times for each addition, and the specific viscosity of deoxyribonucleic acid was also measured in the presence and absence of test samples. […]
Also, the emission spectral titration for all compounds was also carried out at a fixed concentration (25 μM) of BSA with an incremental concentration of substances (0–25 µM)

NCC[C@H](O)C(=O)N[C@@H]1C[C@H](N)[C@@H](O[C@H]2O[C@H](CN)[C@@H](O)[C@H](O)[C@H]2O)[C@H](O)[C@H]1O[C@H]1O[C@H](CO)[C@@H](O)[C@H](N)[C@H]1O [Amikacin, amikacin, reference compound]
Inhibition% [1]: 73% | Diameter of clear zone inhibition [1]: 22 mm | Inhibition% (Shigella flexneri): 70% | Diameter of clear zone inhibition (Shigella flexneri): 20 mm | Inhibition% [2]: 75% | Diameter of clear zone inhibition [2]: 24 mm | Inhibition% (Bacillus cereu): 70% | Diameter of clear zone inhibition (Bacillus cereu): 20 mm | Inhibition% (Escherichia coli): 73% | Diameter of clear zone inhibition (Escherichia coli): 22 mm | Inhibition% (Pseudomonas aeruginosa): 70% | Diameter of clear zone inhibition (Pseudomonas aeruginosa): 20 mm | Inhibition% (Staphylococcus Aureus): 70% | Diameter of clear zone inhibition (Staphylococcus Aureus): 20 mm

C[C@@H]1[C@H](O)[C@@H](C)/C=C/C=C/C=C/C=C/C=C/C=C/C=C/[C@H](O[C@@H]2O[C@H](C)[C@@H](O)[C@H](N)[C@@H]2O)C[C@@H]2O[C@](O)(C[C@@H](O)C[C@@H](O)[C@H](O)CC[C@@H](O)C[C@@H](O)CC(=O)O[C@H]1C)C[C@H](O)[C@H]2C(=O)O [Amphotericin B, amphotericin B, reference compound]
Inhibition% (Candida albicans): 65% | Diameter of clear zone inhibition (Candida albicans): 17 mm | Inhibition% (Mucor indicus): 65% | Diameter of clear zone inhibition (Mucor indicus): 17 mm | Inhibition% (Aspergillus niger): 60% | Diameter of clear zone inhibition (Aspergillus niger): 15 mm

O=C1O[C@H]([C@@H](O)CO)C(O)=C1O [Ascorbic acid, ascorbic acid, reference compound]
IC50 [3]: 80 µM | % Inhibition, DPPH ([3]; 40 µM): 41.63% | % Inhibition, DPPH ([3]; 80 µM): 53.74% | % Inhibition, DPPH ([3]; 120 µM): 58.95% | % Inhibition, DPPH ([3]; 160 µM): 70.86% | % Inhibition, DPPH ([3]; 200 µM): 82.75% | % Inhibition, DPPH ([3]; 240 µM): 85.65% | IC50 [4]: 160 µM | % Inhibition, hydroxyl radical ([4]; 40 µM): 20.73% | % Inhibition, hydroxyl radical ([4]; 80 µM): 36.46% | % Inhibition, hydroxyl radical ([4]; 120 µM): 47.87% | % Inhibition, hydroxyl radical ([4]; 160 µM): 59.65% | % Inhibition, hydroxyl radical ([4]; 200 µM): 65.64% | % Inhibition, hydroxyl radical ([4]; 240 µM): 78.83% | % Inhibition, nitric oxide ([5]; 40 µM): 28.55% | % Inhibition, nitric oxide ([5]; 80 µM): 35.75% | % Inhibition, nitric oxide ([5]; 120 µM): 43.65% | % Inhibition, nitric oxide ([5]; 160 µM): 52.68% | % Inhibition, nitric oxide ([5]; 200 µM): 63.72% | % Inhibition, nitric oxide ([5]; 240 µM): 72.73% | % Inhibition, superoxide ([6]; 40 µM): 29.64% | % Inhibition, superoxide ([6]; 80 µM): 41.72% | % Inhibition, superoxide ([6]; 120 µM): 55.63% | % Inhibition, superoxide ([6]; 160 µM): 66.75% | % Inhibition, superoxide ([6]; 200 µM): 72.55% | % Inhibition, superoxide ([6]; 240 µM): 84.85%

CC[n+]1c(-c2ccccc2)c2cc(N)ccc2c2ccc(N)cc21 [EB, ethidium bromide, reference compound]
ΔTm (CT-DNA [7]): 13 °C | Slope of (η/η0)^1/3 vs [compound]/[DNA] (CT-DNA [8]): 1.215 | Relative specific viscosity (η/η0)^1/3 (CT-DNA [8]; [complex]/[DNA] = 0.2): 1.01 | Relative specific viscosity (η/η0)^1/3 (CT-DNA [8]; [complex]/[DNA] = 0.4): 1.35 | Relative specific viscosity (η/η0)^1/3 (CT-DNA [8]; [complex]/[DNA] = 0.6): 1.63 | Relative specific viscosity (η/η0)^1/3 (CT-DNA [8]; [complex]/[DNA] = 0.8): 1.82 | Relative specific viscosity (η/η0)^1/3 (CT-DNA [8]; [complex]/[DNA] = 1.0): 1.99

CC(=O)N1CCN(c2ccc(OCC3COC(Cn4ccnc4)(c4ccc(Cl)cc4Cl)O3)cc2)CC1 (stereo not shown) [Ketoconazole, ketoconazole, reference compound]
Inhibition% (Candida albicans): 67% | Diameter of clear zone inhibition (Candida albicans): 18 mm | Inhibition% (Mucor indicus): 67% | Diameter of clear zone inhibition (Mucor indicus): 18 mm | Inhibition% (Aspergillus niger): 63% | Diameter of clear zone inhibition (Aspergillus niger): 16 mm

[H]/N=C(/N)N[C@H]1[C@H](O)[C@@H](O)[C@H](O[C@@H]2O[C@@H](C)[C@](O)(C=O)[C@H]2O[C@@H]2O[C@@H](CO)[C@H](O)[C@@H](O)[C@@H]2NC)[C@@H](N/C(N)=N\[H])[C@@H]1O [Streptomycin, streptomycin, reference compound]
Inhibition% [1]: 77% | Diameter of clear zone inhibition [1]: 26 mm | Inhibition% (Shigella flexneri): 76% | Diameter of clear zone inhibition (Shigella flexneri): 25 mm | Inhibition% [2]: 75% | Diameter of clear zone inhibition [2]: 24 mm | Inhibition% (Bacillus cereu): 71% | Diameter of clear zone inhibition (Bacillus cereu): 21 mm | Inhibition% (Escherichia coli): 75% | Diameter of clear zone inhibition (Escherichia coli): 24 mm | Inhibition% (Pseudomonas aeruginosa): 71% | Diameter of clear zone inhibition (Pseudomonas aeruginosa): 21 mm | Inhibition% (Staphylococcus Aureus): 71% | Diameter of clear zone inhibition (Staphylococcus Aureus): 21 mm
